Laboratory results as given in patent publication US20230075822A1, “USE OF CASTALAGIN OR ANALOGS THEREOF FOR ANTI-CANCER EFFICACY AND TO INCREASE THE RESPONSE TO IMMUNE CHECKPOINT INHIBITORS” (THE ROYAL INSTITUTION FOR THE ADVANCEMENT OF …, priority 2020, published 2023).

Key:
Ruminococcaceae = test: qRT-PCR with Ruminococcaceae-specific primers on mouse feces; assay type: in vivo, mice; details: 6 days of oral gavage, vs water
Procedure: FIG. 9J is a graph showing the effect of castalagin treatment (0 mg/kg, 1/4×, 0.21 mg/kg, 1×, 0.85 mg/kg, and 3×, 2.55 mg/kg) on the amount of Ruminococcaceae in the feces. Real-time PCR was performed on DNA extracted from mouse stools after 6 days of oral gavage with water or castalagin at 0.21 mg/kg, 0.85 mg/kg and 2.55 mg/kg using specific primers for Ruminococcaceae detection in MCA-205-bearing, SPF-reared mice (n=5). *p<0.05, **p<0.01.
FIG. 13 is a graph depicting the results of qPCR assays performed on DNA extracted from mouse stools after 6 days of oral gavage with water or castalagin at 0.85 mg/kg using specific primers for Ruminococcaceae detection in MCA-205—bearing, SPF-reared mice (n=10). *p<0.05,
Genomic DNA extraction from mouse feces. Total genomic DNA from fecal pellets was extracted using ZymoBIOMICS DNA Miniprep Kit (Zymo Research Corporation) and immediately stored at -80° C. This protocol involves a bead beating step to ensure full recovery of bacterial DNA. DNA concentration and quality were measured using the Nanodrop ND-1000 (ThermoFisher).
Quantitative real-time PCR (qRT-PCR). Quantitative real-time PCR was performed to evaluate the relative levels of the total bacterial DNA and the V6 region of the 16S rRNA gene was amplified using the primer set 891F (5′-[…]-3′, SEQ ID NO:1) and 1033R (5′-TGCGGGACTTAACCCAACA-3′, SEQ ID NO:2) (Anhê et al. Diabetologia. 2018 April; 61(4):919-931) and specifically to evaluate the relative levels of the Ruminococcaceae DNA using the specific primers F (5′-[…]-3′, SEQ ID NO:3) and R (5′-[…]-3′, SEQ ID NO:4) (Garcia-Mazcorro JF et al FEMS Microbiol Ecol 2012; 80(3):624-36). DNA (400ng/well) extracted was combined with 500 nM of the above described primer mix and 1× qPCRBIO SyGreen blue Mix Hi-ROX (PCRBIOSystems). The qPCR reaction was performed on the Applied Biosystems StepOnePlus Real-Time PCR System (ThermoFisher Scientific) at 95° C. for 3min to denature DNA, with amplification proceeding for 40 cycles at 95° C. for 5s, 60° C. for 30 s, and completed with a melt curve stage. Raw threshold cycle (Ct) values were compared to a bacterial standard curve produced with Escherichia coli DNA for the 16s analysis and with Ruminoccocus bicirculans for the Rumniccocaceae analysis for approximation of bacterial load.

CD8^+ T cells = test: Flow cytometry immune profiling of tumor and spleen, E0771 tumor model; assay type: in vivo, C57BL/6 mice; details: αPD-1 with or without treatment
Procedure: FIGS. 7A-C are graphs showing the results of immune cell profiling by flow cytometry in the murine MCA-205 (FIGS. 7A-B) or E0771 (FIG. 7C) tumor model treated with anti-PD-1 and/or CC. The tumors and the spleens were harvested 9 days or 19 days after the first injection of anti-PD-1 mAb into mice bearing MCA-205 or E0771 tumors, respectively. Excised tumors were cut into small pieces and digested in RPMI medium containing Liberase 25 μg/mL (Roche) and DNase1 at 150 Ul/mL (Roche) for 30 minutes at 37° C. and then crushed and filtered twice using 100 and 70 μm cell strainers (Becton & Dickinson). Spleens were crushed in RPMI medium and subsequently filtered through a 100 μm cell strainer. Two million tumor cells or splenocytes were pre-incubated with purified anti-mouse CD16/CD32 (clone 93; eBioscience) for 30 minutes at 4° C., before membrane staining (CD45, CD3, CD4, CD8, PD1, PDL1, ICOS, CXCR3, CCR9, CD45RB, CD62L, CD44). For intracellular staining, the Foxp3 staining kit (eBioscience) was used. Dead cells were excluded using the Live/Dead Fixable aqua blue dead cell stain kit (Life Technologies). […] FIG. 7C is a graph showing the activation of intratumoral CD8^+ T cells (as assessed by MFI of ICOS^+CD8^+ T cells by flow cytometry) in TILs in the E0771 tumor model post-treatment with CC +/-αPD-1. […]

For `O=C1OC[C@H]2OC(=O)c3cc(O)c(O)c(O)c3-c3c(O)c(O)c(O)c4c3C(=O)O[C@H]([C@H]3OC(=O)c5c-4c(O)c(O)c(O)c5[C@@H]3O)[C@@H]2OC(=O)c2cc(O)c(O)c(O)c2-c2c1cc(O)c(O)c2O` [castalagin, Castalagin], the “Ruminococcaceae abundance (qRT-PCR)” value (Ruminococcaceae; 1/4 concentration dose (0.21 mg/kg)) was “not increase”, the “Ruminococcaceae abundance (qRT-PCR), duplicated experiment” value (Ruminococcaceae; castalagin 0.85 mg/kg, n=10) was “increase of Ruminococcaceae” and the “Ruminococcaceae abundance (qRT-PCR)” value (Ruminococcaceae; standard castalagin dose (0.85 mg/kg)) was “significantly increased”. For the same compound, the “Ruminococcaceae abundance (qRT-PCR)” value (Ruminococcaceae; three-fold standard castalagin dose (2.55 mg/kg)) was “significantly increased”, the “frequency of memory CD8^+ T cells (CD44^HighCD62L^−CD8^+)” value (CD8^+ T cells; splenocytes) was “increase in frequency of memory CD8^+ T cells” and the “frequency of memory CD8^+ T cells (CD44^HighCD62L^−CD8^+)” value (CD8^+ T cells; tumor microenvironment) was “increase in frequency of memory CD8^+ T cells”.
